The source of these data is PubChem BioAssay (NCI).

Test systems include HOP-92 NSCLC; M14 melanoma; MOLT-4 leukemia; NCI-H226 lung; NCI-H460 lung; RPMI-8226 leukemia; SF-268 CNS; SF-295 CNS; SF-539 CNS; SK-OV-3 ovarian.
Assay in all cases: NCI anticancer screen, dose series, 48 h

Each structure is given as a SMILES string.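 All cell lines were grown in 96-well plates and treated with compound for 48 hours. GI50 marks 50% less growth. TGI: total growth inhibition.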

With `COC(=O)C(CC(=O)Nc1ccc(Cl)c(Cl)c1)C(=O)C(=O)NC1C2CC3CC(C2)CC1C3` (stereo not given), the TGI in the experiment with HOP-92 NSCLC, in the experiment with M14 melanoma, with MOLT-4 leukemia, in the experiment on NCI-H226 lung, with NCI-H460 lung and in the experiment on RPMI-8226 leukemia was over 100 µM each time. Moreover, the TGI with SF-268 CNS, with SF-295 CNS, with SF-539 CNS and in the experiment with SK-OV-3 ovarian was over 100 µM in each case.
For `C[CH2][Sn]([Cl])([Cl])[CH2]C`, the GI50 was 19.7 µM in the experiment on HOP-92 NSCLC; 24.1 µM in the experiment on M14 melanoma; 29 µM in the experiment with MOLT-4 leukemia; 19.9 µM in the experiment on NCI-H226 lung; over 64.3 µM in the experiment with NCI-H460 lung; 17.1 µM with RPMI-8226 leukemia. For the same compound, the GI50 in the experiment on SF-268 CNS is 29.7 µM; in the experiment on SF-295 CNS, over 75 µM; in the experiment with SF-539 CNS it was 40.1 µM; with SK-OV-3 ovarian, over 100 µM. Besides, the TGI with HOP-92 NSCLC is 36.2 µM; in the experiment on M14 melanoma, 57.7 µM; in the experiment with MOLT-4 leukemia, over 94.5 µM; with NCI-H226 lung, 42.6 µM; with NCI-H460 lung, over 100 µM; with RPMI-8226 leukemia, 48.3 µM. In addition, the TGI with SF-268 CNS is 79.1 µM; in the experiment on SF-295 CNS, over 100 µM; with SF-539 CNS, over 100 µM; with SK-OV-3 ovarian it was over 100 µM.
Take `C=CC(=O)Nc1cccc(C)c1Nc1ncc2cc(-c3c(Cl)c(OC)cc(OC)c3Cl)ccc2n1`: the GI50 is 6.99 µM with HOP-92 NSCLC; 7.44 µM in the experiment on M14 melanoma; 1.76 µM in the experiment on MOLT-4 leukemia; 3.18 µM with NCI-H226 lung; 1.64 µM in the experiment on NCI-H460 lung; 1.44 µM in the experiment with RPMI-8226 leukemia. Also, the GI50 in the experiment with SF-268 CNS is 3.69 µM; in the experiment on SF-295 CNS, 3.26 µM; in the experiment on SF-539 CNS it was 1.38 µM; in the experiment with SK-OV-3 ovarian, 18.3 µM. For the same compound, the TGI was 36.8 µM in the experiment with HOP-92 NSCLC; 57.2 µM with M14 melanoma; 7.61 µM in the experiment with MOLT-4 leukemia; 18.1 µM in the experiment with NCI-H226 lung; 11.5 µM in the experiment on NCI-H460 lung; 7.54 µM with RPMI-8226 leukemia. Further, the TGI is 38.6 µM in the experiment on SF-268 CNS, over 100 µM in the experiment on SF-295 CNS, 10.8 µM with SF-539 CNS and 82.6 µM in the experiment with SK-OV-3 ovarian.
Regarding `COCCNC(=O)c1ccc(-c2nc3ccc4[nH]ncc4c3c3c2CCCC3)cc1`, the GI50 with HOP-92 NSCLC is 1.59 µM; in the experiment on M14 melanoma, 1.39 µM; with MOLT-4 leukemia it was 1.61 µM; in the experiment with NCI-H226 lung, 2.47 µM; in the experiment with NCI-H460 lung it was 1.86 µM; in the experiment with RPMI-8226 leukemia it was 1.74 µM. The GI50 with SF-268 CNS is 2.22 µM; in the experiment with SF-295 CNS it was 2.7 µM; in the experiment with SF-539 CNS, 1.71 µM; with SK-OV-3 ovarian, 0.905 µM. In addition, the TGI in the experiment with HOP-92 NSCLC was 78.9 µM; in the experiment with M14 melanoma, over 100 µM; with MOLT-4 leukemia it was 5.62 µM; in the experiment on NCI-H226 lung, over 100 µM; with NCI-H460 lung, 27.1 µM; with RPMI-8226 leukemia it was 7.03 µM. Moreover, the TGI in the experiment with SF-268 CNS is 39.7 µM; in the experiment on SF-295 CNS, 47.7 µM; with SF-539 CNS, 8.01 µM; with SK-OV-3 ovarian, 5.59 µM.
As for `COc1cc([C@@H]2OC(=O)C3C2C(=O)O[C@H]3c2cc(OC)c(OC)c(OC)c2)cc(OC)c1OC` (stereo not given in full), the TGI in the experiment on HOP-92 NSCLC, in the experiment on M14 melanoma, with MOLT-4 leukemia, with NCI-H226 lung, with NCI-H460 lung and in the experiment with RPMI-8226 leukemia was over 100 µM in each case. Moreover, the TGI with SF-268 CNS, in the experiment on SF-295 CNS, with SF-539 CNS and in the experiment with SK-OV-3 ovarian was over 100 µM each time.
With `C/C(=C\CC[C@]1(C)OC(C)(C)OC1CC/C(C)=C/CO[Si](c1ccccc1)(c1ccccc1)C(C)(C)C)CC/C=C/CO[Si](C)(C)C(C)(C)C` (stereo not given in full), the TGI in the experiment with HOP-92 NSCLC, with M14 melanoma, with MOLT-4 leukemia, in the experiment with NCI-H226 lung, in the experiment on NCI-H460 lung and in the experiment on RPMI-8226 leukemia was over 100 µM each time. In addition, the TGI in the experiment with SF-268 CNS, in the experiment on SF-295 CNS, in the experiment on SF-539 CNS and in the experiment on SK-OV-3 ovarian was over 100 µM in each case.
As for `O=C1/C(=C/c2ccc(Cl)cc2)COc2ccc(O)c(O)c21`, the GI50 was 2.01 µM with HOP-92 NSCLC; 1.92 µM in the experiment on M14 melanoma; 0.618 µM in the experiment on MOLT-4 leukemia; 1.86 µM in the experiment with NCI-H226 lung; 1.78 µM in the experiment on NCI-H460 lung; 0.2 µM in the experiment with RPMI-8226 leukemia. For the same compound, the GI50 was 1.44 µM in the experiment on SF-268 CNS, 3.37 µM in the experiment with SF-295 CNS, 0.44 µM in the experiment with SF-539 CNS and 2.49 µM with SK-OV-3 ovarian. The TGI in the experiment with HOP-92 NSCLC was 8.77 µM; in the experiment on M14 melanoma it was 4.77 µM; in the experiment on MOLT-4 leukemia, over 100 µM; in the experiment on NCI-H226 lung, 5.18 µM; in the experiment with NCI-H460 lung, 3.89 µM; with RPMI-8226 leukemia, 0.512 µM. Moreover, the TGI with SF-268 CNS is 3.06 µM; in the experiment with SF-295 CNS, 13.2 µM; in the experiment on SF-539 CNS, 1.87 µM; with SK-OV-3 ovarian, over 100 µM.
